Reference: ChEMBL document CHEMBL4364241, “Developments in the anticancer activity of structurally modified curcumin: An up-to-date review” (Eur J Med Chem, 2019)
pIC50: −log10 of the molar value.

Key:
[1] = test system: SK-OV-3; assay: Cytotoxicity against human SKOV3 Cells after 24 hrs by MTT assay; type: functional, cell-based; conditions: SK-OV-3, 24 h
[2] = test system: PC-3; assay: Cytotoxicity against human PC3 cells; type: functional, cell-based
[3] = test system: MGC-803; assay: Cytotoxicity against human MGC803 cells; type: functional, cell-based
[4] = test system: Bcap37; assay: Cytotoxicity against human Bcap37 cells; type: functional, cell-based
[5] = test system: HCT-116; assay: Cytotoxicity against human HCT116 Cells; type: functional, cell-based
[6] = test system: SMMC-7721; assay: Anticancer activity against human SMMC7721 cells after 72 hrs by MTT assay; type: functional, cell-based; conditions: SMMC-7721, 72 h
[7] = test system: AGS; assay: Cytotoxicity against human AGS Cells; type: functional, cell-based
[8] = test system: CT26; assay: Cytotoxicity against mouse CT26 cells; type: functional, cell-based
[9] = test system: Caco-2; assay: Cytotoxicity against human Caco2 Cells after 72 hrs by MTT assay; type: functional, cell-based; conditions: Caco-2, 72 h
[10] = test system: K562; assay: Cytotoxicity against human K562 Cells after 24 to 48 hrs by MTT assay; type: functional, cell-based
[11] = test system: HepG2; assay: Cytotoxicity against human HepG2 Cells after 48 hrs by MTT assay; type: functional, cell-based; conditions: HepG2, 48 h
[12] = test system: MCF7; assay: Cytotoxicity against human MCF7 cells; type: functional, cell-based
[13] = test system: DU-145; assay: Anticancer activity against human DU145 cells; type: functional, cell-based
[14] = test system: HeLa; assay: Anticancer activity against human HeLa cells; type: functional, cell-based
[15] = test system: SGC-7901; assay: Antiproliferative activity against human SGC7901 cells after 24 hrs by MTT assay; type: functional, cell-based; conditions: SGC-7901, 24 h
[16] = test system: L02; assay: Cytotoxicity against human HL-7702 cells; type: functional, cell-based
[17] = test system: KBM5; assay: Growth inhibition of human KBM5 cells relative to control; type: functional
[18] = test system: NIH3T3; assay: Cytotoxicity against mouse 3T3 Cells after 48 hrs by MTT assay; type: functional, cell-based; conditions: NIH3T3, 48 h
[19] = test system: U373 MG; assay: Cytotoxicity against human U373MG Cells 48 hrs by MTS assay; type: functional, cell-based, U-373MG ATCC
[20] = Cytotoxicity against human GBM4 Cells 48 hrs by MTS assay; type: functional
[21] = test system: BXPC-3; assay: Cytotoxicity against human BxPC3 cells; type: functional, cell-based
[22] = Cytotoxicity against human GBM2 Cells 48 hrs by MTS assay; type: functional; conditions: GBM2, 48 h
[23] = Cytotoxicity against human CCD-1059SK Cells after 48 hrs by MTS assay; type: functional
[24] = Cytotoxicity against human GBM6 Cells 48 hrs by MTS assay; type: functional; conditions: GBM6, 48 h
[25] = test system: A549; assay: Cytotoxicity against human A549 Cells by MTT assay; type: functional, cell-based
[26] = test system: HSC-2; assay: Cytotoxicity against human HSC2 cells; type: functional, cell-based
[27] = test system: MDA-MB-231; assay: Cytotoxicity against human MDA-MB-231 cells; type: functional, cell-based
[28] = test system: HEp-2; assay: Cytotoxicity against human Hep2 Cells; type: functional, cell-based
[29] = test system: HepG2; assay: Cytotoxicity against human HepG2 Cells; type: functional, cell-based
[30] = test system: A549; assay: Cytotoxicity against human A549 Cells after 24 hrs by MTT assay; type: functional, cell-based; conditions: A549, 24 h
[31] = test system: HT-29; assay: Cytotoxicity against human HT-29 Cells after 72 hrs by MTT assay; type: functional, cell-based; conditions: HT-29, 72 h
[32] = test system: AGS; assay: Cytotoxicity against human AGS Cells by MTT assay; type: functional, cell-based
[33] = test system: A549; assay: Cytotoxicity against human A549 Cells after 24 to 48 hrs by MTT assay; type: functional, cell-based
[34] = test system: HeLa; assay: Cytotoxicity against human HeLa Cells; type: functional, cell-based
[35] = test system: BGC-823; assay: Cytotoxicity against human BGC823 cells; type: functional, cell-based
[36] = test system: GES1; assay: Cytotoxicity against human GES-1 cells; type: functional, cell-based
[37] = Cytotoxicity against human LX2 Cells after 48 hrs by MTT assay; type: functional; conditions: LX-2, 48 h
[38] = test system: EA.hy 926; assay: Cytotoxicity against human EAhy926 Cells after 72 hrs by MTT assay; type: functional, cell-based; conditions: EA.hy 926, 72 h
[39] = test system: SW-620; assay: Cytotoxicity against human SW620 Cells; type: functional, cell-based
[40] = test system: HL-60; assay: Cytotoxicity against human HL60 cells; type: functional, cell-based
[41] = test system: SGC-7901; assay: Cytotoxicity against human SGC7901 cells; type: functional, cell-based
[42] = Cytotoxicity against mitoxantrone resistant […] cells expressing BCRP after 15 mins by fluorescence assay; type: functional, cell-based; conditions: Canis lupus familiaris, MDCK2, 0.25 h
[43] = test system: HSC-4; assay: Cytotoxicity against human HSC4 cells; type: functional, cell-based
[44] = test system: HT-29; assay: Cytotoxicity against human HT-29 Cells; type: functional, cell-based
[45] = test system: SW480; assay: Cytotoxicity against human SW480 Cells after 24 to 48 hrs by MTT assay; type: functional, cell-based
[46] = test system: HepG2; assay: Cytotoxicity against human HepG2 Cells after 72 hrs by MTT assay; type: functional, cell-based; conditions: HepG2, 72 h
[47] = test system: U-251; assay: Cytotoxicity against human U251MG cells after 48 hrs by MTS assay; type: functional, cell-based; conditions: U-251, 48 h
[48] = test system: RWPE-1; assay: Cytotoxicity against human RWPE1 cells; type: functional, cell-based
[49] = Cytotoxicity against human GBM3 Cells 48 hrs by MTS assay; type: functional; conditions: GBM3, 48 h
[50] = test system: CHO-K1; assay: Cytotoxicity against […] Cells after 72 hrs by MTT assay; type: functional, cell-based; conditions: Cricetulus griseus, CHO-K1, 72 h
[51] = test system: MCF7; assay: Induction of apoptosis in human MCF7 cells; type: functional, cell-based
[52] = test system: MCF7; assay: Cytotoxicity against human MCF7 Cells after 48 hrs by MTS assay; type: functional, cell-based; conditions: MCF7, 48 h
[53] = Anticancer activity against human LX2 cells after 72 hrs by MTT assay; type: functional, cell-based; conditions: LX-2, 72 h
[54] = test system: HCT-116; assay: Growth inhibition of human HCT116 cells relative to control; type: functional
[55] = test system: MCF7; assay: Cytotoxicity against human MCF7 Cells after 48 hrs by MTT assay; type: functional, cell-based; conditions: MCF7, 48 h
[56] = test system: PC-3; assay: Anticancer activity against human PC3 cells; type: functional, cell-based
[57] = test system: U-87 MG; assay: Cytotoxicity against human U87MG Cells 48 hrs by MTS assay; type: functional, cell-based, U-87MG ATCC
[58] = test system: MGC-803; assay: Antiproliferative activity against human MGC803 cells after 24 hrs by MTT assay; type: functional, cell-based; conditions: MGC-803, 24 h
[59] = Cytotoxicity against human GBM5 Cells 48 hrs by MTS assay; type: functional
[60] = Cytotoxicity against human GBM1 Cells 48 hrs by MTS assay; type: functional; conditions: GBM1, 48 h
[61] = test system: HSC-3; assay: Cytotoxicity against human HSC3 cells; type: functional, cell-based
[62] = test system: SK-OV-3; assay: Cytotoxicity against human SKOV3 Cells after 48 hrs by Cell Titer Blue assay; type: functional, cell-based; conditions: SK-OV-3, 48 h
[63] = test system: NCI-H1299; assay: Cytotoxicity against human H1299 cells; type: functional, cell-based
[64] = test system: MDA-MB-231; assay: Anticancer activity against human MDA-MB-231 cells after 72 hrs by MTT assay; type: functional, cell-based; conditions: MDA-MB-231, 72 h
[65] = test system: BGC-823; assay: Antiproliferative activity against human BGC823 cells after 24 hrs by MTT assay; type: functional, cell-based; conditions: BGC-823, 24 h
[66] = test system: THP-1; assay: Cytotoxicity against human THP1 Cells; type: functional, cell-based
[67] = test system: L02; assay: Cytotoxicity against human LO2 Cells; type: functional, cell-based
[68] = test system: K562; assay: Antiproliferative activity against human K562 Cells; type: functional, cell-based
[69] = test system: HepG2; assay: Cytotoxicity against human HepG2 Cells by MTT/Trypan Blue Exclusion Assay; type: functional, cell-based

COc1cc(/C=C/C2=NN(c3nc(/N=C4/CC[C@H]5[C@@H]6CC[C@H]7C[C@@H](OC(C)=O)CC[C@]7(C)[C@H]6CC[C@]45C)cc(=O)[nH]3)C(/C=C/c3cc(OC)cc(OC)c3)C2)cc(OC)c1 (stereo partly drawn)
pIC50 [1]: 5.60

Cc1ccc2ncnc(Oc3ccccc3/C=C/C(=O)/C=C/c3c(Cl)cccc3Cl)c2c1
pIC50 [2]: 5.86
pIC50 [3]: 6.07
pIC50 [4]: 5.30

COc1cc(/C=C/C(=O)CC(=O)/C=C/c2ccc(O)c(OC)c2)ccc1O [CURCUMIN]
pIC50 [5]: 4.70 to 5.26
pIC50 [6]: 4.90
pIC50 [7]: 5.01
pIC50 [8]: < 4.70
pIC50 [9]: 4.55
pIC50 [10]: 4.42 to 4.44
pIC50 [11]: 5.03
pIC50 [12]: 4.65
pIC50 [13]: 4.50
pIC50 [14]: 5.36
pIC50 [15]: < 4.70
pIC50 [16]: 4.49
growth inhibition (GI) [17]: 46%
pIC50 [18]: 5.02
pIC50 [19]: < 4.30
pIC50 [20]: < 4.30
pIC50 [21]: 4.74
pIC50 [22]: < 4.30
pIC50 [23]: 3.88
pIC50 [24]: < 4.30
pIC50 [25]: 4.60
pIC50 [26]: 5.11
pIC50 [27]: 4.58
pIC50 [2]: 4.70
pIC50 [28]: 4.67
pIC50 [29]: 4.43
pIC50 [30]: 4.28
pIC50 [31]: 4.63
pIC50 [32]: 4.68
pIC50 [33]: 4.52 to 4.55
pIC50 [34]: 4.65 to 4.85
pIC50 [35]: 4.76
pIC50 [36]: 4.54
pIC50 [37]: 5.04
pIC50 [38]: 4.70
pIC50 [39]: < 4.30
pIC50 [40]: 5.20
pIC50 [41]: 4.65
pIC50 [42]: 4.49
pIC50 [43]: 5.15
pIC50 [44]: 4.17 to 4.73
pIC50 [3]: 4.67
pIC50 [45]: 4.77 to 4.82
pIC50 [46]: 4.60 to 4.69
pIC50 [47]: 4.82
pIC50 [48]: 4.81
pIC50 [49]: < 4.30
pIC50 [50]: 4.67
pIC50 [51]: 4.77
pIC50 [52]: 4.17
pIC50 [53]: 4.85
growth inhibition (GI) [54]: 46.87%
pIC50 [55]: 5.03
pIC50 [56]: 4.68
pIC50 [57]: 5.15
pIC50 [58]: < 4.70
pIC50 [59]: < 4.30
pIC50 [60]: 4.40
pIC50 [61]: 4.96
pIC50 [62]: 5.17
pIC50 [63]: 4.72
pIC50 [64]: 4.94
pIC50 [65]: < 4.70

COc1cccc2c1C(=O)c1c(O)c3c(c(O)c1C2=O)C[C@@](O)(C(=O)CO)C[C@@H]3O[C@H]1C[C@H](N)[C@H](O)[C@H](C)O1 [DOXORUBICIN]
pIC50 [66]: 6.52
pIC50 [67]: 5.16
pIC50 [29]: 6.24
pIC50 [68]: 5.85
pIC50 [34]: 5.69
pIC50 [69]: 4.83
